≈ marks a conversion by molar mass, not a printed value. Like-named read-outs stand apart in the source and are kept apart here.
Columns and labels:
[1] = test system: Streptococcus pneumoniae ATCC 6301; assay: In vitro susceptibility test (MIC); assay type: cell-based; conditions: ATCC6301
Description: Antibacterial activity (Table 2) was determined by in vitro susceptibility tests against Streptococcus pneumoniae ATCC 6301, a macrolide-sensitive strain, using methods known in the microbiological art.

gut contraction = conditions: conscious dogs, dose 1 mg/kg; cited from earlier work
motilin receptor [2] = target: T1, motilin receptor (Homo sapiens, UniProt O43193); assay: Motilin receptor activation, calcium-influx assay; assay type: cell-based
T1 construct: expressed in transfected cells
T1 sequence (O43193 whole entry): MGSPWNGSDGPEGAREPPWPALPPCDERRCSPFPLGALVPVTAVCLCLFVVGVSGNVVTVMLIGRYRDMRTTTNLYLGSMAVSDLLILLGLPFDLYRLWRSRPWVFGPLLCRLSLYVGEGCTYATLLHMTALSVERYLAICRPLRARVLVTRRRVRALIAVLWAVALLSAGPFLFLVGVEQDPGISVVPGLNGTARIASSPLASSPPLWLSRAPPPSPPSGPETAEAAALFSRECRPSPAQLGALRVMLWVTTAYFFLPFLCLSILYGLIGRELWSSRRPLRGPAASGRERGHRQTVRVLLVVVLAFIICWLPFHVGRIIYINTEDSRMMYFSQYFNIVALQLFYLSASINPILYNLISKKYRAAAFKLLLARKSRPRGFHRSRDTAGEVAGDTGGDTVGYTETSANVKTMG
Excerpt: The compounds of formula (I) are agonists of the motilin receptor.

motilin receptor [3] = target: T1, motilin receptor; conditions: cell-based and muscle strip contractility assays; cited from earlier work
motilin receptor [4] = target: T1, motilin receptor; conditions: cited from earlier work
motilin receptor [5] = target: T1, motilin receptor; assay: Motilin receptor desensitization, cell-based assay
Description: Compounds were tested for motilin receptor desensitization using the cell-based assay described in Carreras et al., US 2002/0192709 A1 (2002), “Methods for Evaluating Therapeutic Efficacy,” the disclosure of which is incorporated herein by reference.

[6] = Streptococcus pneumoniae ATCC 6301, macrolide-sensitive strain, read-out: MIC

MIC [1, 6] [µg/mL] | EC50 (motilin receptor [2]) [µM] | SMILES | further results
0.3 (≈ 0.408 µM) | 2.5 | CCC1OC(=O)C(C)C(OC2CC(C)(OC)C(O)C(C)O2)C(C)C(OC2OC(C)CC(N(C)C)C2O)C(C)(O)CC(C)C(O)C(C)C(O)C1(C)O [A, (9S)-9-dihydroerythromycin A, reference compound] | Activity relative to erythromycin, stimulation of gut contraction (gut contraction): 65%
 | 0.49 | CCC1OC(=O)C(C)C(OC2CC(C)(OC)C(O)C(C)O2)C(C)C(OC2OC(C)CC(N(C)C(C)C)C2O)C(C)(O)CC(C)C(O)C(C)C(O)C1(C)O (centres unmarked) [B] | 
 | 5 | COC1(C)CC(OC2C(C)C(=O)OC(CCF)C(C)(O)C(O)C(C)C(O)C(C)CC(C)(O)C(OC3OC(C)CC(N(C)C)C3O)C2C)OC(C)C1O [C, (9S)-9-dihydro-15-fluoroerythromycin A] | 
 |  | CC[C@H]1OC(=O)[C@H](C)[C@@H](OC2C[C@@](C)(OC)C[C@H](C)O2)[C@H](C)[C@@H](OC2O[C@H](C)C[C@H](N(C)C(C)C)[C@H]2O)[C@@]2(C)CC(C)=C(O2)[C@H](C)C(=O)[C@]1(C)OC (some centres unmarked) [Compound 7] | Motilin receptor desensitization (in words) (motilin receptor [3]): show motilin receptor desensitization
 | 2 | CCN(C)C1CC(C)OC(OC2C(C)C(OC3CC(C)(OC)C(O)C(C)O3)C(C)C(=O)OC(CCF)C(C)(O)C(O)C(C)C(O)C(C)CC2(C)O)C1O [D, N-desmethyl-N-ethyl(9S)-9-dihydro-15-fluoroerythromycin A] | 
 | 0.52 | COC1(C)CC(OC2C(C)C(=O)OC(CCF)C(C)(O)C(O)C(C)C(O)C(C)CC(C)(O)C(OC3OC(C)CC(N(C)C(C)C)C3O)C2C)OC(C)C1O [E, N-desmethyl-N-isopropyl(9S)-9-dihydro-15-fluoroerythromycin A] | 
 |  | CCC1OC(=O)C(C)C(OC2CC(C)(OC)C(O)C(C)O2)C(C)C(OC2OC(C)CC(N(C)C)C2O)C(C)(O)CC(C)C(=O)C(C)C(O)C1(C)O (centres unmarked) [Erythromycin A, reference compound] | MIC ([1]; Streptococcus pneumoniae): 0.03 µg/mL (≈ 0.0409 µM); Motilin agonist activity (in words) (motilin receptor [4]): motilin agonist activity
1 (≈ 1.33 µM) | 8.6 | CCCC1OC(=O)C(C)C(OC2CC(C)(OC)C(O)C(C)O2)C(C)C(OC2OC(C)CC(N(C)C)C2O)C(C)(O)CC(C)C(O)C(C)C(O)C1(C)O [F, (9S)-9-dihydro-15-methylerythromycin A] | Activity following exposure to compound (% of original activity retained) (motilin receptor [5]; 1 μM compound): 100%; Activity following exposure to compound (% of original activity retained) (motilin receptor [5]; 10 μM compound): 100%
> 100 | 1.4 | CCCC1OC(=O)C(C)C(OC2CC(C)(OC)C(O)C(C)O2)C(C)C(OC2OC(C)CC(N(C)C(C)C)C2O)C(C)(O)CC(C)C(O)C(C)C(O)C1(C)O [G, N-desmethyl-N-isopropyl-15-methyl-(9S)-9-dihydroerythromycin A] | Activity following exposure to compound (% of original activity retained) (motilin receptor [5]; 1 μM compound): 100%; Activity following exposure to compound (% of original activity retained) (motilin receptor [5]; 10 μM compound): 100%
 | 3.3 | CCCC1OC(=O)C(C)C(OC2CC(C)(OC)C(O)C(C)O2)C(C)C(OC2OC(C)CC(N(C)C(C)CC)C2O)C(C)(O)CC(C)C(O)C(C)C(O)C1(C)O [H, N-desmethyl-N-(2-butyl) (9S)-9-dihydro-15-methylerythromycin A] | 
> 100 | 0.16 | CCC1OC(=O)C(C)C(OC2CC(C)(OC)C(O)C(C)O2)C(C)C(OC2OC(C)CC(N(C)C(C)C)C2O)C(C)(O)CC(C)C(O)C(C)CC1C [J, N-desmethyl-N-isopropyl-11-deoxy-(9S)-9-dihydroerythromycin B] | Activity following exposure to compound (% of original activity retained) (motilin receptor [5]; 1 μM compound): 88%; Activity following exposure to compound (% of original activity retained) (motilin receptor [5]; 10 μM compound): 88%
